Patent publication US7803788B2, “Prodrugs of phosphonate nucoleotide analogues” (Gilead Sciences, Inc., priority 2000, dated 2010)
Read-outs that look alike come from different tables or passages of the source.

Experiments:
[1] = PMPA metabolites in plasma, PBMCs and RBCs after 1 h incubation in human blood
Procedure: After 1 hour, plasma, red blood cells (RBCs) and peripheral blood mononuclear cells (PBMCs) were isolated and analyzed by HPLC with radiometric detection.
Met. Lower case “p” designates phosphorylation.

[2] = Stability in human plasma; assay type: in vitro ADME; details: for Human Plasma Stability (HP) product / Human Plasma Stability (HP) t1/2: 37° C., TBS pH 7.5
Procedure: (§1) The in vitro metabolism and stability of separated diastereomers were determined in PLCE, MT-2 extract and human plasma. A biological sample listed below, 80 μL, was transferred into a screw-capped centrifuge tube and incubated at 37° C. for 5 min. A solution containing 0.2 mg/mL of the test compound in a suitable buffer, 20 μL, was added to the biological sample and mixed. The reaction mixture, 20 μL, was immediately sampled and mixed with 60 μL of methanol containing 0.015 mg/mL of 2-hydroxymethylnaphthalene as an internal standard for HPLC analysis. The sample was taken as the time-zero sample. Then, at specific time points, the reaction mixture, 20 μL, was sampled and mixed with 60 μl of methanol containing the internal standard. The mixture thus obtained was centrifuged at 15,000 G for 5 min and the supernatant was analyzed with HPLC under the conditions described below.
(§2) The biological samples evaluated are as follows, • (1) PLCE (porcine liver carboxyesterase from Sigma, 160 u/mg protein, 21 mg protein/mL) diluted 20 fold with PBS (phosphated-buffered saline). • (2) MT-2 cell extract was prepared from MT-2 cells according to the published procedure [A. Pompon, I. Lefebvre, J.-L. Imbach, S. Kahn, and D. Farquhar, “Antiviral Chemistry & Chemotherapy”, 5:91-98 (1994)] except for using HEPES buffer described below as the medium. • (3) Human plasma (pooled normal human plasma from George King Biomedical Systems, Inc.)
In the study for human plasma, the test compound was dissolved in TBS. TBS (tris-buffered saline, Sigma) contains 0.05 M Tris, 0.0027 M potassium chloride, and 0.138 M sodium chloride. pH 7.5 at 37° C.
(§3) The HPLC analysis was carried out under the following conditions.

MT-2 cells = experiment: Cytotoxicity in MT-2 cells
[3] = Excretion and tissue distribution of radiolabelled GS-7340 in dogs; details: dogs, oral 10 mg-eq. PMPA/kg
Procedure: Plasma and peripheral blood mononuclear cells (PBMCs) were obtained over the 24-hr period. Urine and feces were cage collected over 24 hr. At 24 h after the dose, the animals were sacrificed and tissues removed for analysis. Total radioactivity in tissues was determined by oxidation and liquid scintillation counting.

[4] = Stability / hydrolysis in MT-2 cell extract; assay type: in vitro ADME; details: for MT-2 extract hydrolysis product: 37° C., HEPES buffer pH 7.4
Procedure: as §1, §2
In the study for MT-2 cell extracts, the test compound was dissolved in HEPES buffer. HEPES buffer contains 0.010 M HEPES, 0.05 M potassium chloride, 0.005 M magnesium chloride, and 0.005 M dl-dithiothreitol. pH 7.4 at 37° C.
as §3

HIV-1 = experiment: In vitro anti-HIV-1 activity in MT-2 cells; assay type: cell-based; details: Table 5 (selected IC50 data from Table 4); read-out: HIV IC50
[5] = system: PLCE (porcine liver carboxyesterase); experiment: PLCE hydrolysis; assay type: in vitro ADME; details: 37° C., PBS pH 7.4
Procedure: as §1, §2
In the study for PLCE, the test compound was dissolved in PBS. PBS (phosphate-buffered saline, Sigma) contains 0.01 M phosphate, 0.0027 M potassium chloride, and 0.137 M sodium chloride. pH 7.4 at 37° C.
as §3

CC(C)OC(=O)[C@H](C)N[P@](=O)(CO[C@H](C)Cn1cnc2c(N)ncnc21)Oc1ccccc1 (single isomer, unassigned) [GS-7340]
Metabolites (% of Total Peak Area): GS 7340 (intact) ([1]; Plasma/FP): 84% | Total C-14 Recovered ([1]; Plasma/FP, 60 μg-eq): 43.0 μg-eq | Metabolites (% of Total Peak Area): GS 7340 (intact) ([1]; RBC/FP): 57% | Stability T ½ Human Plasma ([2]; human plasma): 1.5 h | CC50 (MT-2 cells; Table 4): ≥ 40000 nM | CC50 (MT-2 cells; read-out: Cytotoxicity CC50, MT-2 cells, Table 1): > 40000 nM | % Dose ([3]; Abdominal fat): 0.00% | Conc. ([3]; Abdominal fat): 0.90 ug-eq/g | % Dose ([3]; Adrenal Gland): 0.00% | % Dose ([3]; Axillary Lymph Nodes): 0.01% | % Dose ([3]; Bile): 0.22% | % Dose ([3]; Bone Marrow): 0.00% | % Dose ([3]; Brain): 0.00% | Conc. ([3]; Brain): <LOD | % Dose ([3]; Cerebrospinal Fluid): 0.00% | Conc. ([3]; Cerebrospinal Fluid): 0.00 ug-eq/g | % Dose ([3]; Duodenum): 0.44% | % Dose ([3]; Eye (L + R)): 0.00% | Conc. ([3]; Eye (L + R)): 0.23 ug-eq/g | % Dose ([3]; Feces): 0.19% | % Dose ([3]; Femoral Bone): 0.00% | Conc. ([3]; Femoral Bone): 0.28 ug-eq/g | % Dose ([3]; Gall bladder): 0.04% | % Dose ([3]; Heart): 0.15% | % Dose ([3]; Ileum): 0.16% | % Dose ([3]; Iliac Lymph Nodes): 0.01% | % Dose ([3]; Inguinal Lymph Nodes): 0.00% | % Dose ([3]; Jejunum): 0.79% | % Dose ([3]; Lungs): 0.34% | % Dose ([3]; Mesenteric Lymph Nodes): 0.04% | % Dose ([3]; Pancreas): 0.01% | % Dose ([3]; Pituitary Gland): 0.00% | Conc. ([3]; Pituitary Gland): 1.80 ug-eq/g | % Dose ([3]; Prostate): 0.00% | % Dose ([3]; Salivary Gland (L + R)): 0.03% | % Dose ([3]; Skeletal Muscle): 0.01% | % Dose ([3]; Skin): 0.00% | Conc. ([3]; Skin): 0.95 ug-eq/g | % Dose ([3]; Spinal Cord): 0.00% | Conc. ([3]; Spinal Cord): 0.04 ug-eq/g | % Dose ([3]; Spleen): 0.17% | % Dose ([3]; Stomach): 0.26% | % Dose ([3]; Testes (L + R)): 0.02% | % Dose ([3]; Thyroid Gland): 0.00% | % Dose ([3]; Whole Blood): 0.16% | Conc. ([3]; Whole Blood): 0.20 ug-eq/g | Stability T ½ MT-2 Cell Extract ([4]; MT-2 cell extract): 0.472 h

CCOC(=O)C(CC)NP(=O)(COC(C)Cn1cnc2c(N)ncnc21)Oc1ccccc1 (single isomer, unassigned) [compound 6]
IC50 (HIV-1): 30 nM | Human Plasma Stability (HP) product [2]: Met. Y | Human Plasma Stability (HP) t1/2 [2]: 4.28 h | PLCE hydrolysis product [5]: Met. X

CCOC(=O)C(C)NP(=O)(COC(C)Cn1cnc2c(N)ncnc21)Oc1ccccc1 (single isomer, unassigned) [compound 2]
IC50 (HIV-1): 50 nM | Human Plasma Stability (HP) product [2]: Met. Y | Human Plasma Stability (HP) t1/2 [2]: 8.25 h | MT-2 extract hydrolysis product [4]: Met. X & PMPA | PLCE hydrolysis product [5]: Met. X & PMPA

CCOC(=O)C(C)NP(=O)(COC(C)Cn1cnc2c(N)ncnc21)Oc1ccccc1 (single isomer, unassigned) [compound 1]
IC50 (HIV-1): 5 nM | Human Plasma Stability (HP) product [2]: Met. Y | Human Plasma Stability (HP) t1/2 [2]: 2.47 h | MT-2 extract hydrolysis product [4]: Met. X & PMPA | PLCE hydrolysis product [5]: Met. X & PMPA
